Measurements from patent US20240336577A1, “PYRAZINE COMPOUND, AND METHOD OF PREPARATION AND USE THEREOF” (SHENZHEN OLIVE BIOPHARMACEUTICALS CO., LTD, priority 2020, published 2024).

Tests used:
db/db mice [1] = assay: Glucose and lipid metabolism in db/db mice, 56 d administration; format: in vivo; conditions: once/d 56 d, TMP 5.0 mg/kg, mean±SEM, n=6; for Glycated hemoglobin / Glucose determination / High-density lipoprotein cholesterol / Low-density lipoprotein cholesterol: metformin 225 mg/kg/d; for Glycated hemoglobin: OLB-1/OLB-2 13.32 mg/kg (0.037 mmol/kg); for Glucose determination / High-density lipoprotein cholesterol / Low-density lipoprotein cholesterol / Creatinine / Total cholesterol / Triglyceride / Urea: OLB-1/OLB-2 13.32 mg/kg; for Creatinine / Total cholesterol / Triglyceride / Urea: Losartan 10 mg/kg
Procedure: Mice of a normal control group and model mice were given normal saline 10 ml/kg/d, metformin hydrochloride enteric-coated tablets 225 mg/kg/d, Losartan 10 mg/kg, TMP (5.0 mg/kg, 0.037 mmol/kg), and OLB-1 and OLB-2 (13.32 mg/kg, 0.037 mmol/kg), at a volume of 10 mL/kg, once/d, for continuous administration of 56 d, blood lipids and blood glucose related indexes were measured after blood collection. Data were presented as mean±SEM; n=6 per group. One-way ANOVA and multiple range test were adopted to show differences between the two groups. a, p<0.05 vs. db/db group; c, p<0.001 vs. db/db group.

db/db mice [2] = assay: Biochemical and metabolic indicators in db/db mice, 90 d administration; format: in vivo; conditions: once/d 90 d, Losartan 15 mg/kg/d, TMP 5.0 mg/kg, OLB-1 2.31 mg/kg, OLB-2 2.3 mg/kg, mean±SEM, n=6
[3] = tested on: SH—SY5Y neuroblastoma cells; assay: LPS-induced inflammatory factors and oxidative stress-related proteins, ELISA kit; format: cell-based; conditions: 1 μg/mL LPS 24 h, mean±SEM, n=8; for TNF-alpha: differentiated SH-SY5Y, supernatant
Procedure: The SH—SY5Y cells were recovered and cultured, and the cells in the logarithmic growth phase were taken. After 24 h of incubation, SH—SY5Y neuroblastoma cells were treated with 1 μM all-trans retinoic acid to induce differentiation, and then inoculated into a 6-well culture dish for 24 h of incubation. The medium was treated with chemicals feed at 0.2 μM (L) or 1 μM (H) and 1 μg/mL LPS for 24 h, a supernatant medium was aspirated, and changes of inflammatory factors and oxidative stress-related proteins were measured by an ELISA kit. Data were presented as mean±SEM; n=8 per group. One-way ANOVA and multiple range test were adopted to show differences between the two groups. a, p<0.05 vs. LPS group; b, p<0.01 vs. LPS group; c, p<0.001 vs. LPS group.

[4] = tested on: 6-OHDA Parkinson's disease rats; assay: APO-induced rotations in 6-OHDA Parkinson's disease rats; format: in vivo; conditions: APO-induced 6-OHDA rats, 2 weeks of treatment; different dosages of OLB-1, OLB-2; levodopa 25 mg/kg; FIG. 8
Excerpt: There is no rotation in a sham-operated group, and there is no significant difference between the groups injected with 6-OHDA, and there are about 180 rotations. […] Data were presented as mean±SEM; n=9-10 per group. One-way ANOVA and multiple range test were adopted to show differences between the two groups. *p<0.05, **p<0.01 vs. before 6-OHDA group.

[5] = tested on: ALS (SOD-G93A) transgenic mice; assay: Pole climbing test in ALS transgenic mice; format: in vivo; conditions: different dosages of OLB-1, OLB-2, riluzole 5 mg/kg, FIG. 6
Excerpt: The pole climbing test is generally used to evaluate a motor coordination ability and motor delay of the limbs in mice. A homemade wooden pole about 50 cm long and about 1 cm in diameter was wrapped with medical gauze to increase friction of the wooden pole. The wooden pole was put vertically on a horizontal table, the mouse tail was grabbed such that the mouse head was facing down, with limbs grabbing a top of the pole; after releasing the mouse tail, timing was started, and it was ensured that the mouse crawled downward without external force, and the time was recorded for the mouse to climb from the top of the pole to a bottom platform (a standard was that mouse hind limbs were landed on the ground). […] An average of the three pole climbing times of mice was calculated as a final pole climbing time. […] Data were presented as mean±SEM; n=10 per group. One-way ANOVA and multiple range test were adopted to show differences between the two groups. ***p<0.001 vs. WT (normal control) group; #p<0.05, ##p<0.01 vs. ALS (SOD-G93A) group.

[6] = tested on: ALS (SOD-G93A) transgenic mice; assay: Limb grip force test in ALS transgenic mice; format: in vivo; conditions: different dosages of OLB-1, OLB-2, riluzole 5 mg/kg, FIG. 7
Procedure: The limb grip force test is used directly to assess muscle strength in mice. […] After the start of administration, the grip force of the mice was tested every two weeks, and the measurement was repeated three times for each mouse, and the maximum among the three results was taken as a maximum grip force of the mice. […] Data were presented as mean±SEM; n=10 per group. One-way ANOVA and multiple range test show differences between the two groups. **p<0.01, ***p<0.001 vs. WT (normal control) group; #p<0.05, ##p<0.01 vs. ALS (SOD-G93A) group.

`CN(C)C(=N)N=C(N)N` [metformin, reference compound] was tested, and the Glycated hemoglobin (db/db mice [1]) was 628.52 ± 50.59(c) nmol/L, the Glucose determination (db/db mice [1]) was 24.01 ± 2.38(c) mM and the High-density lipoprotein cholesterol (db/db mice [1]) was 2.19 ± 0.12(a) mM. For the same molecule, the Low-density lipoprotein cholesterol (db/db mice [1]) was 0.59 ± 0.02(c) mM.

With `CCCCc1nc(Cl)c(CO)n1Cc1ccc(-c2ccccc2-c2nn[nH]n2)cc1` [Losartan, reference compound] the Creatinine (db/db mice [1]) was 42.12 ± 1.72(c) μmol/L, the Total cholesterol (db/db mice [1]) was 6.76 ± 0.46(c) mM and the Triglyceride (db/db mice [1]) was 9.68 ± 0.37(c) mg/dL. The Urea (db/db mice [1]) was 7.23 ± 0.51(c) mmol/L, the Creatinine (db/db mice [2]) was 42.12 ± 1.72(c) μmol/L and the Urea (db/db mice [2]) was 7.23 ± 0.51(c) mmol/L. For the same molecule, the Urine albumin/creatinine (db/db mice [2]) was 522.59 ± 103.42(c) mg/g.

For `Cc1nc(C)c(C)nc1C` [TMP, tetramethylpyrazine, reference compound], the Creatinine (db/db mice [1]) was 52.5 ± 3.76 µmol/L, the Total cholesterol (db/db mice [1]) was 10.96 ± 1.38 ^ mM and the Triglyceride (db/db mice [1]) was 12.83 ± 1.37 ^ mg/dL. For the same molecule, the Urea (db/db mice [1]) was 11.55 ± 0.59 ^ mmol/L, the Glycated hemoglobin (db/db mice [1]) was 917.31 ± 57.43 ^ nmol/L and the Glucose determination (db/db mice [1]) was 37.94 ± 3.11 ^ mM. For the same molecule, the High-density lipoprotein cholesterol (db/db mice [1]) was 2.49 ± 0.16 ^ mM, the Low-density lipoprotein cholesterol (db/db mice [1]) was 0.68 ± 0.04 ^ mM and the GSH-Px ([3]; compound 0.2 μM (L)) was 5.96 ± 0.74 µmol/mg. It also gave an IL1 ([3]; compound 0.2 μM (L)) of 13.26 ± 1.31 pg/mL, an IL6 ([3]; compound 0.2 μM (L)) of 14.12 ± 1.46 pg/mL and an MDA ([3]; compound 0.2 μM (L)) of 23.34 ± 1.71 nmol/mg. It also gave an SOD ([3]; compound 0.2 μM (L)) of 9.57 ± 0.61 nU/ml, a GSH-Px ([3]; compound 1 μM (H)) of 6.90 ± 0.87 µmol/mg and an IL1 ([3]; compound 1 μM (H)) of 13.53 ± 1.74 pg/mL. For the same molecule, the IL6 ([3]; compound 1 μM (H)) was 12.69 ± 1.85 pg/mL, the MDA ([3]; compound 1 μM (H)) was 22.94 ± 1.33 nmol/mg and the SOD ([3]; compound 1 μM (H)) was 8.93 ± 0.47 nU/ml. The TNF-alpha ([3]; compound 0.2 μM (L)) was 12.22 ± 1.28 pg/mL, the TNF-alpha ([3]; compound 1 μM (H)) was 12.64 ± 1.70 pg/mL and the Creatinine (db/db mice [2]) was 52.5 ± 3.76 µmol/L. For the same molecule, the Urea (db/db mice [2]) was 11.55 ± 0.59 ^ mmol/L and the Urine albumin/creatinine (db/db mice [2]) was 687.35 ± 79.04 ^ mg/g.

For `N[C@@H](Cc1ccc(O)c(O)c1)C(=O)O` [levodopa, reference compound], the number of rotations [4] was “effectively reduce the number of rotations”.

`Nc1nc2ccc(OC(F)(F)F)cc2s1` [riluzole, reference compound] was tested, and the “pole climbing time / symptoms of bradykinesia” value [5] was “significantly improve the symptoms of bradykinesia” and the limb grip force [6] was “effectively increase the limb force”.
